Values of other authors, collected in US20140199433A1, “POLYDIORGANOSILOXANE-ENCAPSULATED ACTIVE INGREDIENT, METHOD FOR THE PREPARATION THEREOF, AND CHEWING GUM COMPRISING SAME” (Intercontinental Great Brands LLC, priority 2011, published 2014).

Details: 20° C. and one atmosphere

For `O=C(O)CC(O)C(=O)O` (stereo not shown) [malic acid], the water solubility is given as “about 588 grams per liter”.
